Data taken from ChEMBL document CHEMBL1649565, “Besifloxacin, a novel fluoroquinolone, has broad-spectrum in vitro activity against aerobic and anaerobic bacteria” (Antimicrob Agents Chemother, 2009).
Values after ≈ are worked out from the molar mass of the structure shown. Active and inactive are the calls of the source. The calls are words filed in the database; no cut-off is given here.

Assays:
[1] = test system: Staphylococcus haemolyticus; test: Antibacterial activity against Staphylococcus haemolyticus assessed as percent susceptible isolates by CLSI M100-S18 method; assay type: functional
[2] = test system: Streptococcus oralis; test: Antibacterial activity against Streptococcus oralis by CLSI M100-S18 method; assay type: functional
[3] = test system: Listeria monocytogenes; test: Antibacterial activity against Listeria monocytogenes by CLSI M100-S18 method; assay type: functional
[4] = Antibacterial activity against Lancefield Streptococcus sp. 'group G' by CLSI M100-S18 method; assay type: functional
[5] = test system: Staphylococcus aureus; test: Antibacterial activity against ciprofloxacin-susceptible and methicillin-resistant Staphylococcus aureus assessed as percent susceptible isolates by CLSI M100-S18 method; assay type: functional
[6] = test system: Enterococcus faecium; test: Antibacterial activity against vancomycin- resistant Enterococcus faecium by CLSI M100-S18 method; assay type: functional
[7] = test system: Neisseria meningitidis; test: Antibacterial activity against Neisseria meningitidis assessed as percent susceptible isolates by CLSI M7-A7 method; assay type: functional
[8] = test system: Staphylococcus lugdunensis; test: Antibacterial activity against Staphylococcus lugdunensis by CLSI M100-S18 method; assay type: functional
[9] = test system: Staphylococcus haemolyticus; test: Antibacterial activity against Staphylococcus haemolyticus by CLSI M100-S18 method; assay type: functional
[10] = test system: Moraxella catarrhalis; test: Antibacterial activity against Moraxella catarrhalis by CLSI M7-A7 method; assay type: functional
[11] = test system: Streptococcus pneumoniae; test: Antibacterial activity against levofloxacin-susceptible Streptococcus pneumoniae by CLSI M100-S18 method; assay type: functional
[12] = test system: Citrobacter koseri; test: Antibacterial activity against Citrobacter koseri assessed as percent susceptible isolates by CLSI M7-A7 method; assay type: functional
[13] = test system: Streptococcus anginosus; test: Antibacterial activity against Streptococcus anginosus by CLSI M100-S18 method; assay type: functional
[14] = test system: Staphylococcus lugdunensis; test: Antibacterial activity against Staphylococcus lugdunensis assessed as percent susceptible isolates by CLSI M100-S18 method; assay type: functional
[15] = test system: Staphylococcus epidermidis; test: Antibacterial activity against non-ciprofloxacin-susceptible and methicillin-susceptible Staphylococcus epidermidis by CLSI M100-S18 method; assay type: functional
[16] = test system: Haemophilus influenzae; test: Antibacterial activity against non-ciprofloxacin-susceptible Haemophilus influenzae assessed as percent susceptible isolates by CLSI M7-A7 method; assay type: functional
[17] = test system: Staphylococcus aureus; test: Antibacterial activity against non-ciprofloxacin-susceptible and methicillin-susceptible Staphylococcus aureus assessed as percent susceptible isolates by CLSI M100-S18 method; assay type: functional
[18] = test system: Morganella morganii; test: Antibacterial activity against Morganella morganii by CLSI M7-A7 method; assay type: functional
[19] = test system: Citrobacter koseri; test: Antibacterial activity against Citrobacter koseri by CLSI M7-A7 method; assay type: functional
[20] = test system: Haemophilus influenzae; test: Antibacterial activity against ciprofloxacin-susceptible Haemophilus influenzae by CLSI M7-A7 method; assay type: functional
[21] = test system: Staphylococcus saprophyticus; test: Antibacterial activity against Staphylococcus saprophyticus by CLSI M100-S18 method; assay type: functional
[22] = test system: Staphylococcus epidermidis
[23] = test system: Streptococcus agalactiae; test: Antibacterial activity against Streptococcus agalactiae by CLSI M100-S18 method; assay type: functional
[24] = Antibacterial activity against Lancefield Streptococcus sp. 'group C' by CLSI M100-S18 method; assay type: functional
[25] = test system: Haemophilus influenzae; test: Antibacterial activity against non-ciprofloxacin-susceptible Haemophilus influenzae by CLSI M7-A7 method; assay type: functional
[26] = test system: Moraxella catarrhalis; test: Antibacterial activity against Moraxella catarrhalis assessed as percent susceptible isolates by CLSI M7-A7 method; assay type: functional
[27] = test system: Klebsiella oxytoca; test: Antibacterial activity against Klebsiella oxytoca assessed as percent susceptible isolates by CLSI M7-A7 method; assay type: functional
[28] = test system: Staphylococcus saprophyticus; test: Antibacterial activity against Staphylococcus saprophyticus assessed as percent susceptible isolates by CLSI M100-S18 method; assay type: functional
[29] = test system: Staphylococcus epidermidis; remark: listed apart in the source
[30] = test system: Legionella pneumophila; test: Antibacterial activity against Legionella pneumophila by CLSI M7-A7 method; assay type: functional
[31] = test system: Staphylococcus hominis; test: Antibacterial activity against Staphylococcus hominis assessed as percent susceptible isolates by CLSI M100-S18 method; assay type: functional
[32] = test system: Streptococcus salivarius; test: Antibacterial activity against Streptococcus salivarius by CLSI M100-S18 method; assay type: functional
[33] = test system: Streptococcus mitis; test: Antibacterial activity against Streptococcus mitis by CLSI M100-S18 method; assay type: functional
[34] = test system: Streptococcus sp.; test: Antibacterial activity against Lancefield Streptococcus sp. group F by CLSI M100-S18 method; assay type: functional
[35] = test system: Klebsiella oxytoca; test: Antibacterial activity against Klebsiella oxytoca by CLSI M7-A7 method; assay type: functional
[36] = test system: Staphylococcus epidermidis; test: Antibacterial activity against non-ciprofloxacin-susceptible and methicillin-susceptible Staphylococcus epidermidis assessed as percent susceptible isolates by CLSI M100-S18 method; assay type: functional
[37] = test system: Staphylococcus aureus; test: Antibacterial activity against ciprofloxacin-susceptible and methicillin-resistant Staphylococcus aureus by CLSI M100-S18 method; assay type: functional
[38] = test system: Streptococcus pneumoniae; test: Antibacterial activity against levofloxacin susceptible Streptococcus pneumoniae assessed as percent susceptible isolates by CLSI M100-S18 method; assay type: functional
[39] = test system: Haemophilus influenzae; test: Antibacterial activity against ciprofloxacin-susceptible Haemophilus influenzae assessed as percent susceptible isolates by CLSI M7-A7 method; assay type: functional
[40] = test system: Staphylococcus warneri; test: Antibacterial activity against Staphylococcus warneri assessed as percent susceptible isolates by CLSI M100-S18 method; assay type: functional
[41] = test system: Morganella morganii; test: Antibacterial activity against Morganella morganii assessed as percent susceptible isolates by CLSI M7-A7 method; assay type: functional
[42] = test system: Staphylococcus aureus; test: Antibacterial activity against non-ciprofloxacin-susceptible and methicillin-susceptible Staphylococcus aureus by CLSI M100-S18 method; assay type: functional
[43] = test system: Streptococcus pyogenes; test: Antibacterial activity against Streptococcus pyogenes by CLSI M100-S18 method; assay type: functional
[44] = test system: Streptococcus sanguinis; test: Antibacterial activity against Streptococcus sanguinis by CLSI M100-S18 method; assay type: functional
[45] = test system: Streptococcus equinus; test: Antibacterial activity against Streptococcus bovis by CLSI M100-S18 method; assay type: functional
[46] = test system: Streptococcus pneumoniae; test: Antibacterial activity against non-levofloxacin susceptible Streptococcus pneumoniae by CLSI M100-S18 method; assay type: functional
[47] = test system: Streptococcus constellatus; test: Antibacterial activity against Streptococcus constellatus by CLSI M100-S18 method; assay type: functional
[48] = test system: Enterococcus faecalis; test: Antibacterial activity against vancomycin- resistant Enterococcus faecalis by CLSI M100-S18 method; assay type: functional
[49] = test system: Staphylococcus hominis; test: Antibacterial activity against Staphylococcus hominis by CLSI M100-S18 method; assay type: functional
[50] = test system: Staphylococcus epidermidis; test: Antibacterial activity against ciprofloxacin-susceptible and methicillin-resistant Staphylococcus epidermidis by CLSI M100-S18 method; assay type: functional
[51] = test system: Streptococcus intermedius; test: Antibacterial activity against Streptococcus intermedius by CLSI M100-S18 method; assay type: functional
[52] = test system: Staphylococcus warneri; test: Antibacterial activity against Staphylococcus warneri by CLSI M100-S18 method; assay type: functional
[53] = test system: Streptococcus pneumoniae; test: Antibacterial activity against non-levofloxacin susceptible Streptococcus pneumoniae assessed as percent susceptible isolates by CLSI M100-S18 method; assay type: functional
[54] = test system: Staphylococcus epidermidis; test: Antibacterial activity against ciprofloxacin-susceptible and methicillin-resistant Staphylococcus epidermidis assessed as percent susceptible isolates by CLSI M100-S18 method; assay type: functional
[55] = test system: Neisseria meningitidis; test: Antibacterial activity against Neisseria meningitidis by CLSI M7-A7 method; assay type: functional
[56] = test system: Enterococcus faecalis; test: Antibacterial activity against vancomycin- resistant Enterococcus faecalis assessed as percent susceptible isolates by CLSI M100-S18 method; assay type: functional
[57] = test system: Enterococcus faecium; test: Antibacterial activity against vancomycin- resistant Enterococcus faecium assessed as percent susceptible isolates by CLSI M100-S18 method; assay type: functional

CC[C@H]1OC(=O)[C@H](C)[C@@H](O[C@H]2C[C@@](C)(OC)[C@@H](O)[C@H](C)O2)[C@H](C)[C@@H](O[C@@H]2O[C@H](C)C[C@H](N(C)C)[C@H]2O)[C@](C)(O)C[C@@H](C)CN(C)[C@H](C)[C@@H](O)[C@]1(C)O [AZITHROMYCIN]
Activity [1]: 39.6%
MIC50 [2]: 1 µg/mL (≈ 1.34 µM)
MIC90 [2]: 1 µg/mL (≈ 1.34 µM)
MIC50 [3]: 0.5 µg/mL (≈ 0.668 µM)
MIC90 [3]: 1 µg/mL (≈ 1.34 µM)
MIC50 [4]: 0.5 µg/mL (≈ 0.668 µM)
MIC90 [4]: 0.5 µg/mL (≈ 0.668 µM)
Activity [5]: 94.7%
MIC50 [6]: > 128 µg/mL
MIC90 [6]: > 128 µg/mL
Activity [7]: 100%
MIC50 [8]: > 8 µg/mL
MIC90 [8]: > 8 µg/mL
MIC50 [9]: > 8 µg/mL
MIC90 [9]: > 8 µg/mL
MIC [10]: 0.015 µg/mL (≈ 0.02 µM)
MIC50 [10]: 0.015 µg/mL (≈ 0.02 µM)
MIC90 [10]: 0.03 µg/mL (≈ 0.0401 µM)
MIC50 [11]: 0.06 µg/mL (≈ 0.0801 µM)
MIC90 [11]: > 64 µg/mL
Activity [12]: 99%
MIC50 [13]: 0.06 µg/mL (≈ 0.0801 µM)
MIC90 [13]: > 8 µg/mL
Activity [14]: 66.7%
MIC50 [15]: > 8 µg/mL
Activity [16]: 81.8%
Activity [17]: 18.2%
MIC50 [18]: > 8 µg/mL
MIC90 [18]: > 8 µg/mL
MIC50 [19]: 8 µg/mL (≈ 10.7 µM)
MIC90 [19]: > 8 µg/mL
MIC50 [20]: 2 µg/mL (≈ 2.67 µM)
MIC90 [20]: 2 µg/mL (≈ 2.67 µM)
MIC50 [21]: 1 µg/mL (≈ 1.34 µM)
MIC90 [21]: > 8 µg/mL
MIC90 [22]: inactive
MIC50 [23]: 0.5 µg/mL (≈ 0.668 µM)
MIC90 [23]: 0.5 µg/mL (≈ 0.668 µM)
MIC50 [24]: 0.5 µg/mL (≈ 0.668 µM)
MIC90 [24]: 0.5 µg/mL (≈ 0.668 µM)
MIC50 [25]: 1 µg/mL (≈ 1.34 µM)
MIC90 [25]: 8 µg/mL (≈ 10.7 µM)
Activity [26]: 100%
Activity [27]: 90%
Activity [28]: 100%
MIC90 [29]: inactive
MIC50 [30]: 0.03 µg/mL (≈ 0.0401 µM)
MIC90 [30]: 0.03 µg/mL (≈ 0.0401 µM)
Activity [31]: 30%
MIC50 [32]: 1 µg/mL (≈ 1.34 µM)
MIC90 [32]: 1 µg/mL (≈ 1.34 µM)
MIC50 [33]: 1 µg/mL (≈ 1.34 µM)
MIC90 [33]: 1 µg/mL (≈ 1.34 µM)
MIC50 [34]: 0.5 µg/mL (≈ 0.668 µM)
MIC90 [34]: 0.5 µg/mL (≈ 0.668 µM)
MIC50 [35]: > 8 µg/mL
MIC90 [35]: > 8 µg/mL
Activity [36]: 0%
MIC50 [37]: 1 µg/mL (≈ 1.34 µM)
Activity [38]: 62.5%
Activity [39]: 100%
Activity [40]: 76%
Activity [41]: 76.5%
MIC50 [42]: > 8 µg/mL
MIC90 [42]: > 8 µg/mL
MIC50 [43]: 0.06 µg/mL (≈ 0.0801 µM)
MIC90 [43]: 8 µg/mL (≈ 10.7 µM)
MIC50 [44]: 1 µg/mL (≈ 1.34 µM)
MIC90 [44]: 1 µg/mL (≈ 1.34 µM)
MIC50 [45]: 1 µg/mL (≈ 1.34 µM)
MIC90 [45]: 1 µg/mL (≈ 1.34 µM)
MIC50 [46]: 4 µg/mL (≈ 5.34 µM)
MIC90 [46]: > 64 µg/mL
MIC50 [47]: 1 µg/mL (≈ 1.34 µM)
MIC90 [47]: 1 µg/mL (≈ 1.34 µM)
MIC50 [48]: > 128 µg/mL
MIC90 [48]: > 128 µg/mL
MIC50 [49]: > 8 µg/mL
MIC90 [49]: > 8 µg/mL
MIC [50]: 0.25 µg/mL (≈ 0.334 µM)
MIC50 [51]: 1 µg/mL (≈ 1.34 µM)
MIC90 [51]: 1 µg/mL (≈ 1.34 µM)
MIC50 [52]: > 8 µg/mL
MIC90 [52]: > 8 µg/mL
Activity [53]: 36.5%
Activity [54]: 100%
MIC50 [55]: 0.06 µg/mL (≈ 0.0801 µM)
MIC90 [55]: 0.06 µg/mL (≈ 0.0801 µM)

CN[C@H](CC(C)C)C(=O)N[C@H]1C(=O)N[C@@H](CC(N)=O)C(=O)N[C@H]2C(=O)N[C@H]3C(=O)N[C@H](C(=O)N[C@H](C(=O)O)c4cc(O)cc(O)c4-c4cc3ccc4O)[C@H](O)c3ccc(c(Cl)c3)Oc3cc2cc(c3O[C@@H]2O[C@H](CO)[C@@H](O)[C@H](O)[C@H]2O[C@H]2C[C@](C)(N)[C@H](O)[C@H](C)O2)Oc2ccc(cc2Cl)[C@H]1O [VANCOMYCIN]
MIC [6]: ≤ 0.5 µg/mL
MIC50 [6]: ≤ 0.5 µg/mL
MIC90 [6]: > 32 µg/mL
Activity [56]: 80%
MIC50 [48]: 1 µg/mL (≈ 0.69 µM)
MIC90 [48]: > 32 µg/mL
Activity [57]: 87.3%
